Test [1] has as its target T1, DmC1GalT1^T43-Q388 (Drosophila melanogaster, UniProt Q7K237). Description: Isothermal titration calorimetry (ITC). Format: binding. Also on record: made in house. The protocol: ITC was used to characterize the interaction of DmC1GalT1^T43-Q388 with UDP, APDT*RP with and without UDP, APDTRP with UDP, and P4/P7 with and without UDP. All experiments were carried out in an Auto-iTC200 (Microcal, GE Healthcare) at 20 °C. The titration of DmC1GalT1^T43-Q388 with UDP was carried out at 100 μM of the enzyme with 800 μM UDP in 25 mM TRIS pH 7.5, 150 mM NaCl and 1 mM MnCl2. The titrations with APDT*RP and P4/P7 in the absence of UDP were carried out at 60 μM of the enzyme with 2 mM P4/P7 in 25 mM TRIS pH 7.5, 150 mM NaCl and 1 mM MnCl2. To determine the Kds for APDT*RP, APDTRP and P4/P7 under an excess of UDP, the experiments were made in 25 mM TRIS pH 7.5, 150 mM NaCl, 1 mM UDP and 1 mM MnCl2. The concentration of the enzyme was 60 μM for the titrations of APDT*RP and APDTRP and 50 μM for the titration with P4/P7. The concentration of the (glyco)peptides was 2 mM in all the ITC experiments. The experiments were performed in duplicate. Data integration, correction and analysis were carried out in Origin 7 (Microcal). The data were fit to a one-site equilibrium-binding model. Stoichiometry (n) of binding in all cases was ~1:1 except for UDP whose n = 0.4.

Test [2] addresses T1, DmC1GalT1^T43-Q388. The test can be described thus: UDP-Glo glycosylation kinetics of DmC1GalT1 T43-Q388. The settings on record: for kcat app/Km app (catalytic efficiency): ± standard error; for Km: read-out: Km app.
In test [3] the target is T1, DmC1GalT1^T43-Q388. The test can be described thus: STD NMR experiments. The format is binding. Also noted: made in house. The settings on record: for STD response: presence of UDP ([…]) and 150 µM MnCl2, 20 µM enzyme, 710 µM ligand. The protocol:
STD NMR experiments were performed using a 1:35 molar ratio, defined by 20 μM DmC1GalT1^T43-Q388 and 710 μM ligands (α-O-methyl-GalNAc, and (glyco)peptides), and 25 mM Tris(D11)-DCl buffer, pD 7.5, with 150 mM NaCl and 150 µM MnCl2 in D2O. […] In the presence of 150 µM MnCl2, strong paramagnetic relaxation enhancements are observed for UDP, which prevents the observation of UDP proton signals in the NMR spectra. […] STD NMR spectra (stddiffesgp pulse sequence from Bruker pulse program library) were acquired with 1728 scans and 64 K data points, in a spectral window of 12335.53 Hz centered at 2818 Hz. Selective saturation (on resonance) was performed by irradiating at 7 and/or −0.5 ppm (depending if the ligand contains or not aromatic residues) using a series of 40 Eburp2.1000-shaped (from Bruker shaped pulses library) 90° pulses (50 ms) for a total saturation time of 2 s, and a relaxation delay of 4 s. For the reference spectrum (off resonance), the samples were irradiated at 100 ppm. Proper control experiments were performed for each ligand in the absence of protein and residual STD signals of the methyl groups of Ala/Thr were observed. […] Protein control experiments were also accomplished using DmC1GalT1^T43-Q388 in absence of a ligand and also subtracted from STD experiment. The STD spectrum (ISTD) was obtained by subtracting the on-resonance spectrum (Ion) to the off-resonance spectrum (Ioff). The % of STD (ISTD/Ioff × 100) was estimated by comparing the intensity of the signals in the STD spectrum (ISTD) with the signal intensities of the reference spectrum (Ioff). The STD amplification factor (STDAF) was also estimated by multiplying the % STD values by the ligand excess, which in the case of our experiments was 35 for every ligand. To determine the STD-derived epitope map the relative % of STD were calculated by setting to 100% the STD signal of the proton with the highest STD intensity and calculating the others accordingly (Supplementary Tables 2–4). Some protons were not able to be assessed with accuracy due to the use of water suppression or low signal/noise ratio and display a blue circle in the STD-derived epitope maps. Moreover, the resonances overlapped on the ^1H-NMR spectrum were considered in STD estimation and are labelled as *.

Where [4] appears, read: Kd, excess UDP (1 mM UDP, 1 mM MnCl2), 2 mM (glyco)peptide, 50–60 µM enzyme, 25 mM TRIS pH 7.5, 150 mM NaCl, 20 °C, one-site fit ± fit error, n = 2.
Where [5] appears, read: acceptor varied, 500 µM UDP-Gal, 500 nM enzyme, pH 7.5, 30 min 37 °C, n = 2.
Where [6] appears, read: Kd, absence of UDP, 2 mM glycopeptide, 60 µM enzyme, 25 mM TRIS pH 7.5, 150 mM NaCl, 1 mM MnCl2, 20 °C, one-site fit ± fit error, n = 2.
[7] abbreviates: UDP titration, 1 mM MnCl2, 20 °C.
Where [8] appears, read: acceptor varied, 500 µM UDP-Gal, 500 nM enzyme, pH 7.5, 30 min 37 °C, Michaelis–Menten fit ± standard error, n = 2.
The mark [9] stands for this setting: acceptor substrate varied (P1–P7 12.5–500 µM; APDT*RP/APDS*RP 12.5–1000 µM; α-O-methyl-GalNAc up to 2 mM), 500 µM UDP-Gal, 500 nM enzyme, 25 mM Tris pH 7.5, 150 mM NaCl, 50 µM MnCl2, 1 mg/ml BSA, 30 min 37 °C, Michaelis–Menten fit ± standard error, n = 2.
[10] abbreviates: excess UDP (1 mM), 1 mM MnCl2, 20 °C.

pKd: −log10 of the molar value. Values joined by “and” are separate entries in the source; they are usually repeats but may differ in a detail not shown here. Equal values may be shown once. Read-outs that look alike come from different tables or passages of the source. Peptide text beside a SMILES is read from it. * marks the point of attachment. αGalNAc = CC(=O)N[C@@H]1[C@@H](O)[C@@H](O)[C@@H](CO)O[C@@H]1*

T1 sequence (Q7K237 43-388): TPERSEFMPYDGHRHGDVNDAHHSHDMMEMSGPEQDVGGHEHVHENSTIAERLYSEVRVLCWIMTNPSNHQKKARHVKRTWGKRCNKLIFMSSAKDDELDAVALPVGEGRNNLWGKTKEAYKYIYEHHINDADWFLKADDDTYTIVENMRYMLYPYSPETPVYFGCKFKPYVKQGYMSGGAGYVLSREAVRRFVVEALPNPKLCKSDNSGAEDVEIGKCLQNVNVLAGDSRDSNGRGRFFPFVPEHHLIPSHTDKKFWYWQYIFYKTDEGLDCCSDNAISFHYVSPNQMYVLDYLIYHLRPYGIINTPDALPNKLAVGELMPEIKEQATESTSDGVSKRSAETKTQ

On DmC1GalT1^T43-Q388 [1] (setting [4]), `CC(=O)N[C@H]1[C@@H](O[C@H](C)[C@H](NC(=O)[C@H](CC(=O)O)NC(=O)[C@@H]2CCCN2C(=O)[C@H](C)N)C(=O)N[C@@H](CCCNC(=N)N)C(=O)N2CCC[C@H]2C(N)=O)O[C@H](CO)[C@H](O)[C@@H]1O` [APDT*RP] showed a pKd of 3.76. In addition, the Kd result on DmC1GalT1^T43-Q388 [1] (absence of UDP, 2 mM glycopeptide, 60 µM enzyme, 25 mM TRIS pH 7.5, 150 mM NaCl, 1 mM MnCl2, 20 °C, one-site fit ± fit error, n = 2) is recorded as “Not measurable under our conditions”. The “kcat app/Km app (catalytic efficiency)” value on DmC1GalT1^T43-Q388 [2] (setting [5]) is 300 ± 67 M⁻¹ s⁻¹ and 301.5 M⁻¹ s⁻¹.

As to `CC(=O)N[C@H]1[C@@H](O[C@H](C)[C@H](NC(=O)[C@H](C)NC(=O)[C@H](C)NC(=O)[C@@H]2CCCN2)C(=O)NCC(=O)N2CCC[C@H]2C(=O)N[C@@H](Cc2ccc(O)cc2)C(N)=O)O[C@H](CO)[C@H](O)[C@@H]1O` [P4] (H-PAAT(αGalNAc)GPY-NH2), the pKd at DmC1GalT1^T43-Q388 [1] (setting [6]) is 4.39. At DmC1GalT1^T43-Q388 [2] (setting [5]), the “kcat app/Km app (catalytic efficiency)” value was 1130 ± 100 M⁻¹ s⁻¹ and 1127 M⁻¹ s⁻¹.

As for `CC(=O)N[C@H]1[C@@H](O[C@H](C)[C@H](NC(=O)[C@H](CC(=O)O)NC(=O)[C@H](C)NC(=O)[C@@H](N)Cc2ccc(O)cc2)C(=O)NCC(=O)N2CCC[C@H]2C(=O)N[C@@H](Cc2ccccc2)C(N)=O)O[C@H](CO)[C@H](O)[C@@H]1O` [P7] (H-YADT(αGalNAc)GPF-NH2), the results for the pKd on DmC1GalT1^T43-Q388 [1] (setting [6]) and at DmC1GalT1^T43-Q388 [1] (setting [4]) were 4.43 and 4.22, respectively. In addition, the “kcat app/Km app (catalytic efficiency)” value at DmC1GalT1^T43-Q388 [2] (setting [5]) is 478.8 M⁻¹ s⁻¹.

On DmC1GalT1^T43-Q388 [1], `O=c1ccn([C@@H]2O[C@H](COP(=O)(O)OP(=O)(O)O)[C@@H](O)[C@H]2O)c(=O)[nH]1` [UDP] had a pKd of 4.74. On DmC1GalT1^T43-Q388 [1] (ITC, relative to APDT*RP), the “binding, fold stronger than binding of APDT*RP” value is recorded as ~ 9.5 fold. In addition, on DmC1GalT1^T43-Q388 [1] (setting [7]), the “n (stoichiometry of binding)” value turned out to be 0.4 and the ΔH is given as -4.264 ± 0.471 kcal/mol.

In the case of `CO[C@H]1O[C@H](CO)[C@H](O)[C@H](O)[C@H]1NC(C)=O` [α-O-methyl-GalNAc], at DmC1GalT1^T43-Q388 [3] (on resonance 7 ppm), the “STDAF, CH3 (NHAc) GalNAc” value was 20.0; the “STDAF, H2 GalNAc” value is 45.0; the “STDAF, H3 GalNAc” value worked out at 24.9; the “STDAF, H4 GalNAc” value turned out to be 27.9. Moreover, at DmC1GalT1^T43-Q388 [3] (on resonance 7 ppm), the “STDAF, H5-GalNAc” value is 25.8; the “STDAF, H6-GalNAc” value is on record as 29.5; the “STDAF, OMe” value came to 16.6; the “relative % STD, CH3 (NHAc) GalNAc” value was determined as 44%. On DmC1GalT1^T43-Q388 [3] (on resonance 7 ppm), the “relative % STD, H3 GalNAc” value came to 55%; the “relative % STD, H4 GalNAc” value stood at 62%; the “relative % STD, H5-GalNAc” value came to 57%; the “relative % STD, H6-GalNAc” value stood at 66%. The “relative % STD, OMe” value on DmC1GalT1^T43-Q388 [3] (on resonance 7 ppm) came to 37%. At DmC1GalT1^T43-Q388 [3] (on resonance -0.5 ppm), the “STDAF, CH3 (NHAc) GalNAc” value was 18.9; the “STDAF, H3 GalNAc” value is given as 20.0; the “STDAF, H4 GalNAc” value is on record as 28.7; the “STDAF, H6-GalNAc” value came to 23.6. For the same compound, on DmC1GalT1^T43-Q388 [3] (on resonance -0.5 ppm), the “STDAF, OMe” value worked out at 17.6; the “relative % STD, CH3 (NHAc) GalNAc” value came out at 61%; the “relative % STD, H3 GalNAc” value was found to be 65%; the “relative % STD, H4 GalNAc” value is on record as 93%. Also, on DmC1GalT1^T43-Q388 [3] (on resonance -0.5 ppm), the “relative % STD, H6-GalNAc” value is given as 77% and the “relative % STD, OMe” value is listed as 57%. For the same compound, the “STDAF, H2 GalNAc” value at DmC1GalT1^T43-Q388 [3] (on resonance -0.5 ppm, […] UDP, 150 µM MnCl2, 298 K) turned out to be 30.7. Moreover, the “STD response” value on DmC1GalT1^T43-Q388 [3] is listed as “clearly presented STD enhancements”. Besides, at DmC1GalT1^T43-Q388 [2] (500 µM UDP-Gal), the “activity as acceptor substrate” value is listed as “kinetic parameters could not be determined”. Also, the Vmax app on DmC1GalT1^T43-Q388 [2] (setting [8]) was found to be 548.9 nmol/min/mg. Moreover, the “initial activity relative to that achieved with APDT*RP” value on DmC1GalT1^T43-Q388 [2] (at a saturating concentration of the glycopeptides (~500 µM)) was “half”. For the same compound, at DmC1GalT1^T43-Q388 [2] (setting [9]), the Km is 10.3 mM. For the same compound, the “saturation of the enzyme” value at DmC1GalT1^T43-Q388 [2] (up to 2 mM substrate) is reported as “did not reach saturation up to 2 mM”.

For APDTRP, on DmC1GalT1^T43-Q388 [3], the “STD response” value is reported as “did not display STD response”. Besides, on DmC1GalT1^T43-Q388 [1] (excess UDP (1 mM UDP, 1 mM MnCl2), 2 mM (glyco)peptide, 50–60 µM enzyme, 25 mM TRIS pH 7.5, 150 mM NaCl, 20 °C, one-site fit ± fit error, n = 2), the Kd entry was “Not measurable under our conditions”. In addition, on DmC1GalT1^T43-Q388 [1] (setting [10]), the “-TΔS” value is “Not measurable under our conditions”, the “n (stoichiometry of binding)” value is reported as “Not measurable under our conditions”, the ΔG entry is on record as “Not measurable under our conditions” and the ΔH entry is recorded as “Not measurable under our conditions”. Besides, at DmC1GalT1^T43-Q388 [1] (presence of an excess of UDP), the “binding by ITC” value is on record as “no binding”. The “activity as acceptor substrate” value on DmC1GalT1^T43-Q388 [2] (500 µM UDP-Gal) was “inactive”. Also, at DmC1GalT1^T43-Q388 [2] (setting [9]), the Km app result was “not active” and the Km was about 0.05 mM. Further, the kcat app result at DmC1GalT1^T43-Q388 [2] (setting [8]) is “not active”. On DmC1GalT1^T43-Q388 [2] (setting [5]), the “kcat app/Km app (catalytic efficiency)” value was “not active”.

The values above are taken from article PMC9065035, “Structural basis for the synthesis of the core 1 structure by C1GalT1” (Nature Communications, 2022).
